Assay results from ChEMBL document CHEMBL4020771, “Activity of resveratrol triesters against primary acute lymphoblastic leukemia cells” (Bioorg Med Chem Lett, 2017).
Calls of active or inactive are those of the source. The calls are words filed in the database; no cut-off is given here.

How the values were obtained:
[1] = Cytotoxicity against human ALL5 cells after 120 hrs by MTT method; type: functional, cell-based; details: ALL5, 120 h
[2] = test system: HeLa; assay: Cytotoxicity against human HeLa cells up to 10 uM after 72 hrs by MTT method; type: functional, cell-based
[3] = Cell cycle arrest in human ALL5 cells assessed as accumulation at subG1 phase at 25 uM after 48 hrs by propidium iodide staining based flow cytometric analysis (reference value: 3.44 %); type: functional
[4] = Cell cycle arrest in human ALL5 cells assessed as accumulation at G1 phase at 25 uM after 48 hrs by propidium iodide staining based flow cytometric analysis (reference value: 70.5 %); type: functional
[5] = Cell cycle arrest in human ALL5 cells assessed as accumulation at S phase at 25 uM after 48 hrs by propidium iodide staining based flow cytometric analysis (reference value: 11.7 %); type: functional
[6] = Cell cycle arrest in human ALL5 cells assessed as accumulation at G2 phase at 25 uM after 48 hrs by propidium iodide staining based flow cytometric analysis (reference value: 13.6 %); type: functional
[7] = Cell cycle arrest in human ALL5 cells assessed as accumulation at subG1 phase at 25 uM after 96 hrs by propidium iodide staining based flow cytometric analysis (reference value: 3.44 %); type: functional
[8] = Cell cycle arrest in human ALL5 cells assessed as accumulation at G1 phase at 25 uM after 96 hrs by propidium iodide staining based flow cytometric analysis (reference value: 70.5 %); type: functional
[9] = Cell cycle arrest in human ALL5 cells assessed as accumulation at S phase at 25 uM after 96 hrs by propidium iodide staining based flow cytometric analysis (reference value: 11.7 %); type: functional
[10] = Cell cycle arrest in human ALL5 cells assessed as accumulation at G2 phase at 25 uM after 96 hrs by propidium iodide staining based flow cytometric analysis (reference value: 13.6 %); type: functional
[11] = Cell cycle arrest in human ALL5 cells assessed as accumulation at subG1 phase at 25 uM after 120 hrs by propidium iodide staining based flow cytometric analysis (reference value: 3.44 %); type: functional
[12] = Cell cycle arrest in human ALL5 cells assessed as accumulation at G1 phase at 25 uM after 120 hrs by propidium iodide staining based flow cytometric analysis (reference value: 70.5 %); type: functional
[13] = Cell cycle arrest in human ALL5 cells assessed as accumulation at S phase at 25 uM after 120 hrs by propidium iodide staining based flow cytometric analysis (reference value: 11.7 %); type: functional
[14] = Cell cycle arrest in human ALL5 cells assessed as accumulation at G2 phase at 25 uM after 120 hrs by propidium iodide staining based flow cytometric analysis (reference value: 13.6 %); type: functional
[15] = test system: ALL5; assay: Increase in p53 expression in human ALL5 cells at 25 uM after 96 hrs by Western blot analysis; type: functional, cell-based
[16] = Cell cycle arrest in human ALL5 cells assessed as accumulation at subG1 phase at 25 uM after 96 hrs in presence of CDK4/6 inhibitor palbociclib by propidium iodide staining based flow cytometric analysis (reference value: 1.47%); type: functional
[17] = Cell cycle arrest in human ALL5 cells assessed as accumulation at G1 phase at 25 uM after 96 hrs in presence of CDK4/6 inhibitor palbociclib by propidium iodide staining based flow cytometric analysis (reference value: 97.8%); type: functional
[18] = Cell cycle arrest in human ALL5 cells assessed as accumulation at S phase at 25 uM after 96 hrs in presence of CDK4/6 inhibitor palbociclib by propidium iodide staining based flow cytometric analysis (reference value: 0.07%); type: functional
[19] = Cell cycle arrest in human ALL5 cells assessed as accumulation at G2 phase at 25 uM after 96 hrs in presence of CDK4/6 inhibitor palbociclib by propidium iodide staining based flow cytometric analysis (reference value: 0.64%); type: functional
[20] = Cell cycle arrest in human ALL5 cells assessed as accumulation at subG1 phase at 1 uM after 72 hrs by propidium iodide staining based flow cytometric analysis (reference value: 0.54 %); type: functional
[21] = Cell cycle arrest in human ALL5 cells assessed as accumulation at G1 phase at 1 uM after 72 hrs by propidium iodide staining based flow cytometric analysis (reference value: 64.4%); type: functional
[22] = Cell cycle arrest in human ALL5 cells assessed as accumulation at S phase at 1 uM after 72 hrs by propidium iodide staining based flow cytometric analysis (reference value: 15.2%); type: functional
[23] = Cell cycle arrest in human ALL5 cells assessed as accumulation at G2 phase at 1 uM after 72 hrs by propidium iodide staining based flow cytometric analysis (reference value: 19.1%); type: functional

O=C(/C=C/c1ccccc1)Oc1ccc(/C=C/c2cc(OC(=O)/C=C/c3ccccc3)cc(OC(=O)/C=C/c3ccccc3)c2)cc1
IC50 [1]: > 10 µM

O=C(Oc1ccc(/C=C/c2cc(OC(=O)c3ccccc3)cc(OC(=O)c3ccccc3)c2)cc1)c1ccccc1
IC50 [1]: > 10 µM

COc1cc(C(=O)Oc2ccc(/C=C/c3cc(OC(=O)c4cc(OC)c(OC)c(OC)c4)cc(OC(=O)c4cc(OC)c(OC)c(OC)c4)c3)cc2)cc(OC)c1OC
IC50 [1]: > 10 µM

COc1cc(/C=C/C(=O)Oc2ccc(/C=C/c3cc(OC(=O)/C=C/c4cc(OC)c(O)c(OC)c4)cc(OC(=O)/C=C/c4cc(OC)c(O)c(OC)c4)c3)cc2)cc(OC)c1O
IC50 [1]: > 10 µM

O=C(CCl)Oc1ccc(/C=C/c2cc(OC(=O)CCl)cc(OC(=O)CCl)c2)cc1
IC50 [1]: 10 to 10.5 µM

CC(C)CC(=O)Oc1ccc(/C=C/c2cc(OC(=O)CC(C)C)cc(OC(=O)CC(C)C)c2)cc1
Activity [2]: inactive
Activity [3]: 16.4%
Activity [4]: 66.4%
Activity [5]: 9.6%
Activity [6]: 6.99%
Activity [7]: 59.4%
Activity [8]: 32.5%
Activity [9]: 5.14%
Activity [10]: 2.2%
Activity [11]: 69.9%
Activity [12]: 24.5%
Activity [13]: 4.32%
Activity [14]: 0.86%
Activity [15]: Active
Activity [16]: 7.6%
Activity [17]: 91.6%
Activity [18]: 0.28%
Activity [19]: 0.46%
IC50 [1]: 4.9 µM

Oc1ccc(/C=C/c2cc(O)cc(O)c2)cc1 [RESVERATROL]
IC50 [1]: 10.5 µM

CC(=O)c1c(C)c2cnc(Nc3ccc(N4CCNCC4)cn3)nc2n(C2CCCC2)c1=O [PALBOCICLIB]
Activity [20]: 0.76%
Activity [21]: 98.1%
Activity [22]: 0.29%
Activity [23]: 0.8%
